From patent publication US20230414826A1, “FIBRIN HYDROGELS” (Mayo Foundation for Medical Education and Research, priority 2020, published 2023)

Target: T1, fibrin gels (Homo sapiens, UniProt P02671+P02675+P02679)
T1 sequence (P02671 20-644 isoform P02671-2 limits assumed): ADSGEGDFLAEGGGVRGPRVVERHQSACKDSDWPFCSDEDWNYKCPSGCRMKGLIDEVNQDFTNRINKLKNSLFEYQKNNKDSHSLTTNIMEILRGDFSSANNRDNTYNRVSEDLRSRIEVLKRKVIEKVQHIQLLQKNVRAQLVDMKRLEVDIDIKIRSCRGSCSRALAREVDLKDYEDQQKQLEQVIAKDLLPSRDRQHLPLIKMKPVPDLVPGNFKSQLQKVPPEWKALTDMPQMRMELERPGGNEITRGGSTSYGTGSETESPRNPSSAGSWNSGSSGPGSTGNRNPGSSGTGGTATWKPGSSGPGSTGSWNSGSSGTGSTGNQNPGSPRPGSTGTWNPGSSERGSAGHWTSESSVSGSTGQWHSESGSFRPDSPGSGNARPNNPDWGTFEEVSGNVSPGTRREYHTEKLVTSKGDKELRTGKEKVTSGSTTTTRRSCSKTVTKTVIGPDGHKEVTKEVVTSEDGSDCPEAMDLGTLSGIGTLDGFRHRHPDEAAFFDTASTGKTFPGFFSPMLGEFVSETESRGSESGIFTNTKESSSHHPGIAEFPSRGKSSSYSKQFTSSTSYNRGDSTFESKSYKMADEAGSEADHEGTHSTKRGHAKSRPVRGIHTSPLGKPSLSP
T1 sequence (P02675 45-491 limits assumed): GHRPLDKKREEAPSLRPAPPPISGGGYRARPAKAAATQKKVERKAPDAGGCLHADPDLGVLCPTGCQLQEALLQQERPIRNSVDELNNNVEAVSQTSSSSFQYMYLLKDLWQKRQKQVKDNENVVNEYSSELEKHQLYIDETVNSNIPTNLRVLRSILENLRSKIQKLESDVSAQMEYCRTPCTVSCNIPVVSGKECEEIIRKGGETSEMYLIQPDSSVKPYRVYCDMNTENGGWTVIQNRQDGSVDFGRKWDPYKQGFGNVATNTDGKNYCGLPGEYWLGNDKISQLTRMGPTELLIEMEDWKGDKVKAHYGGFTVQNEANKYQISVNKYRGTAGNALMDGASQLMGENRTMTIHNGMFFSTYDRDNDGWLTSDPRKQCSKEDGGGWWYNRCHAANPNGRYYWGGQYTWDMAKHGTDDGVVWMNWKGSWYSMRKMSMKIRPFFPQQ
T1 sequence (P02679 27-437 isoform P02679-2 limits assumed): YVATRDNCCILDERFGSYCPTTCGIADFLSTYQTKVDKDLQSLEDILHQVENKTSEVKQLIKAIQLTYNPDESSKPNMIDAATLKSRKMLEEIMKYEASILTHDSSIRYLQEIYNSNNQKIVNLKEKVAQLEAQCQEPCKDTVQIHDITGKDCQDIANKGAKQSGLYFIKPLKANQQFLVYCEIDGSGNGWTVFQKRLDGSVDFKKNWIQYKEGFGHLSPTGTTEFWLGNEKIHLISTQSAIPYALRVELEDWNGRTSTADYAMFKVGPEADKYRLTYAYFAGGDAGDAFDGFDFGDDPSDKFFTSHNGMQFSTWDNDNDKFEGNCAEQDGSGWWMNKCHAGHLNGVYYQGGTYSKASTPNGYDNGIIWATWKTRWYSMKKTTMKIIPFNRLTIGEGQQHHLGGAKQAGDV
Experiment: Fibrin gel degradation with plasminogen and tissue plasminogen activator, thickness by OCT
Conditions: 1.6 U/mL plasminogen and 17,000 U/mL tPA in PBS, 37° C., gels with 0.12% dye, n=3
Experimental: Fibrin gels were cast as described in the Electron Microscopy section above and hydrated in PBS. A punch was used to generate 5.0 mm×1.5 mm gels. The measured thickness of all the gels was 309±69 μm.
The fibrin gels were then submerged in a PBS solution with 1.6 U/mL plasminogen (Sigma-Aldrich; St Louis, MO) and 17,000 U/mL tissue plasminogen activator (Sigma-Aldrich) in a glass-bottom petri dish (Mattek) and incubated at 37° C. to initiate degradation as described elsewhere (see, e.g., Gandhi et al., 2018 Acta Biomater., 67:134-46). Fibrin gel thickness was monitored over time by imaging with an Envisu R2110 (Leica; Wetzlar, Germany) optical coherence tomograph (OCT) and quantified using the caliper tool within the accompanying InVivoVue software (Leica). Gel thickness was continually measured every 10 minutes until no physical evidence of the insoluble gel remained. The thickness of a gel was measured at 3 different locations (left, middle, right) on each cross-section. The measure at each location was normalized to its initial value and then averaged.
Fibrin gels produced using PBS, TB, or EB with a geometry of 1.5 mm wide×5.0 mm long×0.2 mm thick were generated. Gels were hydrated in PBS prior to incubation in a solution of tissue plasminogen activator (tPA) and plasminogen (P) at 37° C. […]

Row | Compound | degradation time [min]
1 | Cc1cc(-c2ccc(/N=N/c3ccc4c(S(=O)(=O)O)cc(S(=O)(=O)O)c(N)c4c3O)c(C)c2)ccc1/N=N/c1ccc2c(S(=O)(=O)O)cc(S(=O)(=O)O)c(N)c2c1O [EB, Evans Blue] | 78 ± 37
2 | Cc1cc(-c2ccc(/N=N/c3c(S(=O)(=O)O)cc4cc(S(=O)(=O)O)cc(N)c4c3O)c(C)c2)ccc1/N=N/c1c(S(=O)(=O)O)cc2cc(S(=O)(=O)O)cc(N)c2c1O [TB, Trypan Blue] | 33 ± 18
